According to patent US20260216294A1, “BETA 2-ADRENERGIC RECEPTOR AGONISTS FOR TREATMENT OR PREVENTION OF MUSCLE WASTING” (ATROGI AB, priority 2023, published 2026):

Legend:
L6-myotubes [1] = assay: Glucose uptake in differentiated L6-myotubes (Biological Example 2); type: cell-based; conditions: for Emax at 10 µM: read-out: Biological example 2 (GU)
Summary of the method: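 Differentiated L6 myotubes were serum-starved overnight in 0.5% fatty-acid-free BSA and then stimulated with compound or isoprenaline at 1×10^−5 M final. After 1 h 40 min cells were washed and re-dosed in glucose-free medium. Twenty minutes later, uptake of 50 nM ^3H-2-deoxyglucose over 10 min was measured by scintillation counting of NaOH lysates.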

L6-myotubes [2] = assay: Measurement of intracellular cAMP levels in differentiated L6-myotubes (Biological Example 3); type: cell-based; conditions: 0.25 h
Summary of the method: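 Serum-starved differentiated L6 myotubes stimulated 15 min with test compound at 1×10^−5 M final (isoprenaline as reference) in HBSS with 1% BSA, 5 mM HEPES, 1 mM IBMX, pH 7.4. Cells EtOH-extracted, lysed, and intracellular cAMP measured by AlphaScreen.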

[3] = glucose uptake in differentiated L6-myotubes, compound at 10 μM, activity relative to isoproterenol at 10 μM
[4] = intracellular cAMP in differentiated L6-myotubes, compound at 10 μM, activity relative to isoproterenol at 10 μM
[5] = glucose uptake, compound at 10 μM relative to isoproterenol at 10 μM
[6] = intracellular cAMP, compound at 10 μM relative to isoproterenol at 10 μM

Structure (SMILES) | Emax at 10 µM (L6-myotubes [1]; [3]) [%] | Emax at 10 µM (L6-myotubes [2]; [4]) [%] | Emax at 10 µM (L6-myotubes [1]; [5]) [%] | Emax at 10 µM (L6-myotubes [2]; [6]) [%] | Biological example 2 (GU) (L6-myotubes [1]; [3])
CC(C)(C[C@H]1CC[C@@H](NS(=O)(=O)C(F)(F)F)CC1)NC[C@H](O)c1cccc(F)c1 [Compound 493, (R)-2-{1,1-dimethyl-2-[(1s,4S)-4-(trifluoromesylamino)cyclohexyl]ethylamino}-1-(m-fluorophenyl)-1-ethanol] | 25 to 50 | < 25 |  |  | 
CCCCNCC(O)c1ccc(F)c(N)c1 (stereo not shown) [Compound 44, 1-(3-amino-4-fluorophenyl)-2-(butylamino)-1-ethanol] |  |  | 50 to 75 | < 25 | 
CCC[C@@H]1CCC[C@H]([C@H](O)c2ccc(F)cc2)N1 [Compound 94] |  |  | 50 to 75 | < 25 | 
CC1(C)CC[C@H]([C@H](O)c2cncc(O)c2)N1 [Compound 167, 5-{(R)-[(R)-5,5-dimethyl-2-pyrrolidinyl] hydroxymethyl}-3-pyridinol] |  |  | 50 to 75 | < 25 | 
CCCCNCC(O)c1cccc(Cl)c1 (stereo not shown) [Compound 2, 2-(butylamino)-1-(m-chlorophenyl)-1-ethanol] |  |  | 25 to 50 | < 25 | 
CS(=O)(=O)N(Cc1ccccc1)[C@H]1CC[C@@H](C[C@@H]2CC[C@H]([C@@H](O)c3cccc(F)c3)N2)CC1 [Compound 509, (S)-[(2R,5S)-5-({(1s,4R)-4-[(benzyl)-N-mesylamino]cyclohexyl}methyl)-2-pyrrolidinyl](m-fluorophenyl)methanol] | < 25 | < 25 |  |  | 
CO[C@H]1CC[C@H](C[C@H]2CC[C@H]([C@@H](O)c3cccc(F)c3)N2)CC1 [Compound 334, (S)-[(2R,5R)-5-{[(1r,4R)-4-methoxycyclohexyl]methyl}-2-pyrrolidinyl] (m-fluorophenyl)methanol] | 25 to 50 | < 25 |  |  | 
CN([C@H]1CC[C@H](CC(C)(C)NC[C@H](O)c2cncc(F)c2)CC1)S(C)(=O)=O [Compound 521, (R)-2-{1,1-dimethyl-2-[(1r,4R)-4-(N-mesyl-N-methylamino)cyclohexyl]ethylamino}-1-(5-fluoro-3-pyridyl)-1-ethanol] | 50 to 75 | < 25 |  |  | 
CC(C)(NC[C@H](O)c1cncc(F)c1)[C@H]1CC[C@H](NS(C)(=O)=O)CC1 [Compound 345, (R)-1-(5-fluoro-3-pyridyl)-2-{1-methyl-1-[(1r,4R)-4-(mesylamino)cyclohexyl]ethylamino}-1-ethanol] | 25 to 50 | < 25 |  |  | 
CC12CCC([C@@H](O)c3cncc(F)c3)(CC1)N2 [Compound 184, (S)-(5-fluoro-3-pyridyl)(4-methyl-7-azabicyclo[[2.2.1]]hept-1-yl)methanol] |  |  | 50 to 75 | < 25 | 
COC(=O)[C@H]1CC[C@H](C(C)(C)NC[C@H](O)c2cccc(F)c2)CC1 [Compound 367, (1R,4r)-8-[(R)-2-(m-fluorophenyl)-2-hydroxyethylamino]-7-methoxy-p-menthan-7-one] | > 75 | 25 to 50 |  |  | 
COCC12CCC([C@H](O)c3cccc(F)c3)(CC1)N2 [Compound 330, (R)-(m-fluorophenyl){4-(methoxymethyl)-7-azabicyclo[[2.2.1]]hept-1-yl}methanol] | > 75 | < 25 |  |  | 
CCCCNCC(O)c1cccc(O)c1 (stereo not shown) [Compound 15, 2-(butylamino)-1-(m-hydroxyphenyl)-1-ethanol] |  |  | 50 to 75 | < 25 | 
COc1ccc(C[C@H]2CC[C@H]([C@@H](O)c3cccc(F)c3)N2)cc1 [Compound 375, (S)-{(2R,5R)-5-[(p-methoxyphenyl)methyl]-2-pyrrolidinyl}(m-fluorophenyl)methanol] | > 75 | < 25 |  |  | 
CC12CC(C1)[C@H]([C@H](O)c1cccc(Cl)c1)N2 [Compound 206] | > 75 | < 25 |  |  | 
CC1(C)C[C@H]([C@@H](O)c2cncc(F)c2)N1 [Compound 217] | 25 to 50 | < 25 |  |  | 
O[C@@H](CNC[C@H]1CC[C@@H](O)CC1)c1cncc(F)c1 [Compound 269, (R)-1-(5-fluoro-3-pyridyl)-2-({[(1s,4S)-4-hydroxycyclohexyl]methyl}amino)-1-ethanol] | 25 to 50 | < 25 |  |  | 
CC(C)(C)NC[C@H](O)c1ccc(F)cc1O [Compound 80, (R)-2-(tert-butylamino)-1-(4-fluoro-2-hydroxyphenyl)-1-ethanol] |  |  | 50 to 75 | < 25 | 
CC12CC(C1)[C@@H]([C@@H](O)c1ccccc1F)N2 [Compound 211, (S)-{(S)-1-methyl-2-azabicyclo[[2.1.1]]hex-3-yl}(o-fluorophenyl)methanol] | > 75 | < 25 |  |  | 

Structure (SMILES) | Emax at 10 µM (L6-myotubes [1]; [3]) [%] | Emax at 10 µM (L6-myotubes [2]; [4]) [%] | Emax at 10 µM (L6-myotubes [1]; [5]) [%] | Emax at 10 µM (L6-myotubes [2]; [6]) [%] | Biological example 2 (GU) (L6-myotubes [1]; [3])
O[C@@H](CNCCC[C@H]1CC[C@@H](O)CC1)c1cccc(F)c1 [Compound 306, (R)-1-(m-fluorophenyl)-2-{3-[(1s,4R)-4-hydroxycyclohexyl]propylamino}-1-ethanol] | 25 to 50 | < 25 |  |  | 
CCCCNCC(O)c1cc(O)cc(O)c1 (stereo not shown) [Compound 26, 5-[2-(butylamino)-1-hydroxyethyl]resorcinol] |  |  | 50 to 75 | < 25 | 
CO[C@H]1CC[C@H](CNC[C@H](O)c2cncc(F)c2)CC1 [Compound 229, (R)-1-(5-fluoro-3-pyridyl)-2-({[(1r,4R)-4-methoxycyclohexyl]methyl}amino)-1-ethanol] | 50 to 75 | < 25 |  |  | 
O[C@@H](c1cncc(F)c1)C12CCC(CCCc3ccccc3)(CC1)N2 [Compound 531, (S)-(5-fluoro-3-pyridyl){4-(3-phenylpropyl)-7-azabicyclo[[2.2.1]]hept-1-yl}methanol] | 50 to 75 | < 25 |  |  | 
CO[C@H]1CC[C@H](CC(C)(C)NC[C@H](O)c2cccc(F)c2)CC1 [Compound 249, (R)-2-{1,1-dimethyl-2-[(1r,4R)-4-methoxycyclohexyl]ethylamino}-1-(m-fluorophenyl)-1-ethanol] | > 75 | < 25 |  |  | 
CS(=O)(=O)N[C@H]1CC[C@@H](C[C@@H]2CC[C@H]([C@H](O)c3cccc(F)c3)N2)CC1 [Compound 510, (R)-[(2R,5S)-5-{[(1s,4R)-4-(mesylamino)cyclohexyl]methyl}-2-pyrrolidinyl](m-fluorophenyl)methanol] | > 75 | < 25 |  |  | 
CC(C)(C[C@H]1CC[C@H](NC(=O)c2ccccc2)CC1)NC[C@H](O)c1cccc(F)c1 [Compound 384] | > 75 | > 75 |  |  | 
CC(C)(C[C@H]1CC[C@@H](N)CC1)NC[C@H](O)c1cccc(F)c1 [Compound 456] | > 75 | < 25 |  |  | 
CC1(C)CC[C@H]([C@@H](O)c2ccccc2Cl)N1 [Compound 151] |  |  | < 25 | < 25 | 
O[C@@H](CNC1(C(F)(F)F)CC1)c1cccc(F)c1 [Compound 118, (R)-1-(m-fluorophenyl)-2-[1-(trifluoromethyl)cyclopropylamino]-1-ethanol] |  |  | 50 to 75 | < 25 | 
CC(C)(C)NC[C@H](O)c1cccc(F)c1 [Compound 54, (R)-2-(tert-butylamino)-1-(m-fluorophenyl)-1-ethanol] |  |  | > 75 | < 25 | 
CC(=O)N[C@H]1CC[C@@H](CC(C)(C)NC[C@@H](O)c2cccc(C#N)n2)CC1 [Compound 423] | < 25 | < 25 |  |  | 
COc1ccc(CC23CCC([C@H](O)c4cccc(F)c4)(CC2)N3)cc1 [Compound 401, (R)-(m-fluorophenyl){4-[(p-methoxyphenyl)methyl]-7-azabicyclo[[2.2.1]]hept-1-yl}methanol] | > 75 | < 25 |  |  | 
CC1(C)CCC[C@@H]([C@H](O)c2cccc(F)c2)N1 [Compound 190] |  |  | > 75 | < 25 | 
O[C@@H](c1ccccc1F)C12CCC(CCc3cccnc3)(CC1)N2 [Compound 444, (R)-(o-fluorophenyl){4-[2-(3-pyridyl)ethyl]-7-azabicyclo[[2.2.1]]hept-1-yl}methanol] |  | 50 to 75 |  |  | +++ (If a compound at 10 μM shows activity of more than 75% of that of isoproterenol at 10 μM, the activity is denoted with +++)
CC1(C)C[C@@H]([C@@H](O)c2ccccc2F)N1 [Compound 205, (S)-[(S)-4,4-dimethyl-2-azetidinyl](o-fluorophenyl)methanol] | 25 to 50 | < 25 |  |  | 
CC(C)(C)NC[C@H](O)c1cccc(C(F)(F)F)n1 [Compound 397, (S)-2-(tert-butylamino)-1-[6-(trifluoromethyl)-2-pyridyl]-1-ethanol] | > 75 | < 25 |  |  | 
CS(=O)(=O)Nc1ccc(CC23CCC([C@@H](O)c4cccc(F)c4)(CC2)N3)cc1 [Compound 474, (S)-(m-fluorophenyl)(4-{[p-(mesylamino)phenyl]methyl}-7-azabicyclo[[2.2.1]]hept-1-yl)methanol] | 50 to 75 | < 25 |  |  | 
CC12CC(C1)[C@H]([C@@H](O)c1cccc(N)c1F)N2 [Compound 243, (S)-{(R)-1-methyl-2-azabicyclo[[2.1.1]]hex-3-yl}(3-amino-2-fluorophenyl)methanol] | 50 to 75 | < 25 |  |  | 
